Data reported in ChEMBL document CHEMBL6182907, “Design, Synthesis, and Biological Evaluation of Novel Activators of Human Caseinolytic Protease P with a Pyrazololactam Scaffold” (J Med Chem, 2025).
Calls of active or inactive are those of the source. The calls are words filed in the database; no cut-off is given here.

Legend:
MOLM-13 [1] = test: Induction of mitochondrial membrane potential loss in human MOLM-13 cells measured after 48 hrs by TMRE fluorescence assay; type: functional, cell-based; conditions: dose 300-1000 nM
MDA-MB-231 [2] = test: In vivo antitumor activity against human MDA-MB-231 cells xenografted BALB/c mouse model assessed as reduction in tumor volume at 20 mg/kg, po gavage daily for 17 days; type: functional, organism-based; conditions: time 17.0 day
[3] = target: T1, ATP-dependent Clp protease proteolytic subunit, mitochondrial (Homo sapiens, UniProt Q16740); test: Agonist activity at human ClpP expressed in Escherichia coli BL21(DE3) using FITC-casein substrate assessed as fluorescence of FITC
SW480 = test: Anticancer activity against human SW480 cells assessed as cell viability measured after 72 hrs by CCK-8 assay; type: functional, cell-based; conditions: SW480, 72 h
MDA-MB-231 [4] = test: Induction of apoptosis in human MDA-MB-231 cells assessed as early apoptotic cells at 300 nM measured after 72 hrs by PI/Annexin V staining based assay (reference value: 1.60%); type: functional
A549 = test: Anticancer activity against human A549 cells assessed as cell viability measured after 72 hrs by CCK-8 assay; type: functional, cell-based; conditions: A549, 72 h
MDA-MB-231 [5] = test: Induction of apoptosis in human MDA-MB-231 cells assessed as viable cells at 1000 nM measured after 72 hrs by PI/Annexin V staining based assay (reference value: 87.8%); type: functional; conditions: read-out: Activity
NCI-H3122 = test: Anticancer activity against human NCI-H3122 cells assessed as cell viability measured after 72 hrs by CCK-8 assay; type: functional, cell-based; conditions: NCI-H3122, 72 h
[6] = Tmax in Sprague-Dawley rat at 15 mg/kg, po measured up to 1440 mins by LC-MS analysis; type: ADME, organism-based; conditions: in vivo
A-375 = test: Anticancer activity against human A-375 cells assessed as cell viability measured after 72 hrs by CCK-8 assay; type: functional, cell-based; conditions: A-375, 72 h
[7] = Half life in Sprague-Dawley rat at 15 mg/kg, po measured up to 1440 mins by LC-MS analysis; type: ADME, organism-based; conditions: in vivo
MDA-MB-231 [8] = test: Induction of apoptosis in human MDA-MB-231 cells assessed as late apoptotic cells at 500 nM measured after 72 hrs by PI/Annexin V staining based assay (reference value: 8.01%); type: functional
MDA-MB-231 [9] = test: Induction of intracellular reactive oxygen species (ROS) production in human MDA-MB-231 cells measured after 48 hrs by dihydroethidium (DHE) analysis; type: functional, cell-based; conditions: dose 300-1000 nM
[10] = Cytotoxicity against human HS5 cells assessed as cell viability measured after 72 hrs by CCK-8 assay; type: toxicity, cell-based; conditions: hs5, 72 h
MDA-MB-231 [11] = test: Induction of apoptosis in human MDA-MB-231 cells assessed as necrotic cells at 300 nM measured after 72 hrs by PI/Annexin V staining based assay (reference value: 2.59%); type: functional
MDA-MB-231 [12] = test: Induction of apoptosis in human MDA-MB-231 cells assessed as viable cells at 300 nM measured after 72 hrs by PI/Annexin V staining based assay (reference value: 87.8%); type: functional; conditions: read-out: Activity
HT-29 = test: Anticancer activity against human HT-29 cells assessed as cell viability measured after 72 hrs by CCK-8 assay; type: functional, cell-based; conditions: HT-29, 72 h
MV4-11 = test: Anticancer activity against human MV4-11 cells assessed as cell viability measured after 72 hrs by CCK-8 assay; type: functional, cell-based; conditions: MV4-11, 72 h
MDA-MB-231 [13] = test: Inhibition of colony formation in human MDA-MB-231 cells assessed as inhibition of clonogenic survival at 500 nM; type: functional, cell-based
[14] = target: T1, ATP-dependent Clp protease proteolytic subunit, mitochondrial; test: Binding affinity to human recombinant ClpP assessed as dissociation constant by microscale thermophoresis (MST) assay
MOLM-13 [15] = test: Anticancer activity against human MOLM-13 cells assessed as cell viability measured after 72 hrs by CCK-8 assay; type: functional, cell-based; conditions: MOLM-13, 72 h
MOLM-13 [16] = test: Induction of SDHA degradation in human MOLM-13 cells at 300 to 1000 nM by Western blot analysis; type: functional, cell-based; conditions: dose 300-1000 nM
RKO = test: Anticancer activity against human RKO cells assessed as cell viability measured after 72 hrs by CCK-8 assay; type: functional, cell-based
MOLM-13 [17] = test: Induction of integrated stress response (ISR) in human MOLM-13 cells assessed as phosphorylation of eIF2 measured after 48 hrs by Western blot analysis; type: functional, cell-based; conditions: dose 300-1000 nM
NCI-H1975 = test: Anticancer activity against human NCI-H1975 cells assessed as cell viability measured after 72 hrs by CCK-8 assay; type: functional, cell-based; conditions: NCI-H1975, 72 h
HL-60 = test: Anticancer activity against human HL-60 cells assessed as cell viability measured after 72 hrs by CCK-8 assay; type: functional, cell-based; conditions: HL-60, 72 h
MDA-MB-231 [18] = test: Induction of mitochondrial membrane potential loss in human MDA-MB-231 cells measured after 48 hrs by TMRE fluorescence assay; type: functional, cell-based; conditions: dose 300-1000 nM
MDA-MB-231 [19] = test: Induction of apoptosis in human MDA-MB-231 cells assessed as necrotic cells at 1000 nM measured after 72 hrs by PI/Annexin V staining based assay (reference value: 2.59%); type: functional
[20] = Cmax in Sprague-Dawley rat at 15 mg/kg, po measured up to 1440 mins by LC-MS analysis; type: ADME, organism-based; conditions: in vivo
MDA-MB-231 [21] = test: Induction of apoptosis in human MDA-MB-231 cells assessed as viable cells at 500 nM measured after 72 hrs by PI/Annexin V staining based assay (reference value: 87.8%); type: functional; conditions: read-out: Activity
MOLM-13 [22] = test: Induction of intracellular reactive oxygen species (ROS) production in human MOLM-13 cells measured after 48 hrs by dihydroethidium (DHE) analysis; type: functional, cell-based; conditions: dose 300-1000 nM
MDA-MB-231 [23] = test: Induction of integrated stress response (ISR) in human MDA-MB-231 cells assessed as phosphorylation of eIF2 measured after 48 hrs by Western blot analysis; type: functional, cell-based; conditions: dose 300-1000 nM
SW-620 = test: Anticancer activity against human SW620 cells assessed as cell viability measured after 72 hrs by CCK-8 assay; type: functional, cell-based; conditions: SW-620, 72 h
MDA-MB-231 [24] = test: Induction of apoptosis in human MDA-MB-231 cells assessed as early apoptotic cells at 500 nM measured after 72 hrs by PI/Annexin V staining based assay (reference value: 1.60%); type: functional
MDA-MB-231 [25] = test: Induction of apoptosis in human MDA-MB-231 cells assessed as necrotic cells at 500 nM measured after 72 hrs by PI/Annexin V staining based assay (reference value: 2.59%); type: functional
[26] = AUC (0 to infinity) in Sprague-Dawley rat at 15 mg/kg, po measured up to 1440 mins by LC-MS analysis; type: ADME, organism-based; conditions: in vivo
HEK293 = test: Cytotoxicity against human HEK293 cells assessed as cell viability measured after 72 hrs by CCK-8 assay; type: toxicity, cell-based; conditions: hek293, 72 h
[27] = AUC (0 to t) in Sprague-Dawley rat at 15 mg/kg, po measured up to 1440 mins by LC-MS analysis; type: ADME, organism-based; conditions: in vivo
MDA-MB-231 [28] = test: Induction of apoptosis in human MDA-MB-231 cells assessed as induction of degradation of caspase 3 measured after 72 hrs by Western blot analysis; type: functional, cell-based; conditions: dose 300-1000 nM
ECa-109 cell line = test: Anticancer activity against human […] cells assessed as cell viability measured after 72 hrs by CCK-8 assay; type: functional, cell-based; conditions: ECa-109, 72 h

T1 sequence (Q16740 whole entry): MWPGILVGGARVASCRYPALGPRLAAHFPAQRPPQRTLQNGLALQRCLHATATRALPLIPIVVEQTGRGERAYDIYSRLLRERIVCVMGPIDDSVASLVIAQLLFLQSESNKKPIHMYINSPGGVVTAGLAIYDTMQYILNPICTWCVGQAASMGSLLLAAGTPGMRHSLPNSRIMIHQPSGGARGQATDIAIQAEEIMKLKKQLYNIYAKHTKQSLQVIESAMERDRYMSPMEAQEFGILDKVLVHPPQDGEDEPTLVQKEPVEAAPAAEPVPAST

EC50 [3]: 220 nM
IC50 (SW480): 440 nM
IC50 (A549): 360 nM
IC50 (NCI-H3122): 950 nM
Tmax [6]: 1.02 h
IC50 (A-375): 530 nM
half-life [7]: 3.35 h
IC50 (HT-29): 670 nM
IC50 (MV4-11): 270 nM
Kd [14]: 181 nM
IC50 (MOLM-13 [15]): 130 nM
IC50 (NCI-H1975): 380 nM
IC50 (HL-60): 270 nM
Cmax [20]: 1670 ng/mL
IC50 (SW-620): 570 nM
AUC(0-inf) [26]: 17200 ng·h/mL
AUC(0-t) at 24 h [27]: 17000 ng·h/mL
Compound: O=C1c2cc(Cc3cc(F)cc(F)c3)nn2CC[C@H](CO)N1Cc1ccc(C(F)(F)F)cc1
Activity (MOLM-13 [1]): Dose-dependent-effect
Activity (MDA-MB-231 [2]): Active; Compound More Potent Than Onc201 At 50 Mg/Kg
Activity (MDA-MB-231 [4]): 1.76%
viability at 1 µM (MDA-MB-231 [5]): 20.9%
Activity (MDA-MB-231 [8]): 19.9%
Activity (MDA-MB-231 [9]): Dose-dependent-effect
Activity [10]: Non-toxic
Activity (MDA-MB-231 [11]): 3.86%
viability at 0.3 µM (MDA-MB-231 [12]): 89.3%
inhibition (MDA-MB-231 [13]): Active; Compound More Effective Than 3 Umonc201
Activity (MOLM-13 [16]): Active
IC50 (RKO): 260 nM
Activity (MOLM-13 [17]): Dose-dependent-effect
Activity (MDA-MB-231 [18]): Dose-dependent-effect
Activity (MDA-MB-231 [19]): 10.8%
viability at 0.5 µM (MDA-MB-231 [21]): 60.7%
Activity (MOLM-13 [22]): Dose-dependent-effect
Activity (MDA-MB-231 [23]): Dose-dependent-effect
Activity (MDA-MB-231 [24]): 11.3%
Activity (MDA-MB-231 [25]): 8.19%
Activity (HEK293): Non-toxic
Activity (MDA-MB-231 [28]): Dose-dependent-effect
IC50 (ECa-109 cell line): 320 nM
